# Values of other authors in article doi:10.1101/2024.08.20.608791v1 (bioRxiv, 2024).
# Conditions: assay not specified
row,in vitro permeability (in words),Molecule
1,moderate in vitro permeability,NNC(=O)NN1C(=O)c2cc(S(=O)(=O)O)cc3c(N)c(S(=O)(=O)O)cc(c23)C1=O [lucifer yellow CH]
2,limited permeability,C=C1C[C@@]23CC[C@H]4[C@@](C)(CCC[C@@]4(C)C(=O)O[C@@H]4O[C@H](CO)[C@@H](O)[C@H](O)[C@H]4O)[C@@H]2CC[C@]1(O[C@@H]1O[C@H](CO)[C@@H](O)[C@H](O)[C@H]1O[C@@H]1O[C@H](CO)[C@@H](O)[C@H](O)[C@H]1O)C3 [stevioside]
3,low in vitro permeability,pasireotide

# Same assay, conditions: not able to quantify in an in vitro permeability assay (≤LOQ)
row,Molecule,"in vitro permeability, not able to quantify"
1,N#C[C@H](O[C@@H]1O[C@H](CO[C@@H]2O[C@H](CO)[C@@H](O)[C@H](O)[C@H]2O)[C@@H](O)[C@H](O)[C@H]1O)c1ccccc1 [Amygdalin],≤ LOQ
2,Cc1ccc(C(=O)Nc2ccc(S(=O)(=O)O)c3cc(S(=O)(=O)O)cc(S(=O)(=O)O)c23)cc1NC(=O)c1cccc(NC(=O)Nc2cccc(C(=O)Nc3cc(C(=O)Nc4ccc(S(=O)(=O)O)c5cc(S(=O)(=O)O)cc(S(=O)(=O)O)c45)ccc3C)c2)c1 [suramin],≤ LOQ
3,CC[C@]1(O)C[C@H]2CN(CCc3c([nH]c4ccccc34)[C@@](C(=O)OC)(c3cc4c(cc3OC)N(C=O)[C@H]3[C@@](O)(C(=O)OC)[C@H](OC(C)=O)[C@]5(CC)C=CCN6CC[C@]43[C@@H]65)C2)C1 [vincristine],≤ LOQ
4,octreotide,≤ LOQ
5,terlipressin,≤ LOQ

# More lines, now with the values ahead:
row,"in vitro permeability, not able to quantify",Molecule
1,≤ LOQ,Nc1nc(=O)c2c([nH]1)NCC(CNc1ccc(C(=O)N[C@@H](CCC(=O)O)C(=O)O)cc1)N2C=O (mixture of isomers) [Folinic acid]
2,≤ LOQ,CO/N=C(\C(=O)N[C@@H]1C(=O)N2C(C(=O)O)=C(CSc3nc(C)c(CC(=O)O)s3)CS[C@H]12)c1csc(N)n1 [Cefodizime]
3,≤ LOQ,CO/N=C(\C(=O)N[C@@H]1C(=O)N2C(C(=O)O)=C(CSc3nc(=O)c(=O)[nH]n3C)CS[C@H]12)c1csc(N)n1 [Ceftriaxone]
4,≤ LOQ,CC(C)(C)OC(=O)N[C@H]1CCCCC/C=C\[C@@H]2C[C@@]2(C(=O)NS(=O)(=O)C2CC2)NC(=O)[C@@H]2C[C@@H](OC(=O)N3Cc4cccc(F)c4C3)CN2C1=O [danoprevir]
5,≤ LOQ,CC(=O)O[C@H]1C(=O)[C@@]2(C)[C@H]([C@H](OC(=O)c3ccccc3)[C@]3(O)C[C@H](OC(=O)[C@H](O)[C@@H](NC(=O)c4ccccc4)c4ccccc4)C(C)=C1C3(C)C)[C@]1(OC(C)=O)CO[C@@H]1C[C@@H]2O [paclitaxel]
6,≤ LOQ,Vancomycin
7,≤ LOQ,dalbavancin

# Conditions: as reported in Table 1 and text; source and method not stated
row,Molecule,log P
1,CC[C@H]1OC(=O)[C@H](C)C(=O)[C@H](C)[C@@H](O[C@@H]2O[C@H](C)C[C@H](N(C)C)[C@H]2O)[C@](C)(OC/C=C/c2cnc3ccccc3c2)C[C@@H](C)C(=O)[C@H](C)[C@H]2NC(=O)O[C@@]21C [Cethromycin],5.4
2,CC(C)[C@@H](C)[C@@]1(C)CC[C@]2(C)[C@H]3CC[C@@H]4[C@@]5(COC[C@@]4(C)[C@@H](OC[C@](C)(N)C(C)(C)C)[C@H](n4ncnc4-c4ccncc4)C5)C3=CC[C@@]2(C)[C@@H]1C(=O)O [Ibrexafungerp],5.8

# Second part, the molecule after the results:
row,log P,Molecule
1,5.1,COC(=O)N[C@H](C(=O)N1CCC[C@H]1c1nc(-c2ccc(-c3ccc(-c4c[nH]c([C@@H]5CCCN5C(=O)[C@@H](NC(=O)OC)C(C)C)n4)cc3)cc2)c[nH]1)C(C)C [Daclatasvir]
2,6.4,CCc1c(Cl)c(O)c(Cl)c(O)c1C(=O)O[C@H]1[C@H](O)[C@H](OC)[C@H](OC/C2=C\C=C\C[C@H](O)/C(C)=C/[C@H](CC)[C@@H](O[C@@H]3OC(C)(C)[C@@H](OC(=O)C(C)C)[C@H](O)[C@@H]3O)/C(C)=C/C(C)=C/C[C@@H]([C@@H](C)O)OC2=O)O[C@@H]1C [Fidaxomicin]
